Assay results taken from patent US9006440B2, “Furopyridine derivatives” (Merck Patent GmbH, priority 2010, dated 2015).

How the values were obtained:
Type in all cases: biochemical
BTK = molecular target: T1, BTK (Homo sapiens, UniProt Q06187); assay: BTK enzymatic assay (Caliper LifeSciences technology)
T1 construct: purchased Carna Bioscience, Kobe, Japan
Protocol: (§1) The assays described here are performed on the Caliper Life Sciences LC3000 system This technology provides data on enzyme activity via measurement of the relative amounts of phosphorylated or unphosphorylated fluorescently labelled substrate peptide at the end of an enzymatic reaction. These different states of peptide are resolved by applying a potential difference across the sample. The presence of the charged phosphate group on the product (as opposed to the substrate) causes a different peptide mobility between the two peptides. This is visualized by excitation of the fluorescent label on the substrate and product peptides and represented as peaks within the analysis software.
(§2) In order to measure inhibitor activity of kinase inhibitors on this technology, a TTP Mosquito liquid handling instrument is used to place 0.25 ul of the appropriate concentration of inhibitor in 100% DMSO (for a dose response curve calculation) into each well of a 384-well plate. To this reaction components are added to a final volume of 25 ul. The table below indicates the sequences and concentrations for the assays described in this report. Standard components are 1 mM DTT (Sigma, D0632), 1 mM MgCl2 (Sigma, M1028), 100 mM HEPES pH 7.5 (Calbiochem, 391338), 0.015% Brij-35 (Sigma, B4184).
(§3) The reaction is incubated for 90 min at 25 C, and then stopped by the addition of 70 ul of Stop buffer (100 mM HEPES pH 7.5, 0.015% Brij-35, 10 mM EDTA (Sigma, E7889)).
(§4) The plate is read on a Caliper LC 3000 in an Off-Chip mobility shift assay format, on a 12-sipper chip. Unphosphorylated substrate and phosphorylated product peptide resolve as separate peaks allowing direct measurement of percentage of conversion of substrate to product. The percent conversion can be plotted against concentration of inhibitor to produce a sigmoidal dose response curve, from which an IC50 can be calculated using GeneData Condoseo or a similar product.

Syk = molecular target: T2, Syk (Homo sapiens, UniProt P43405); assay: Syk enzyme assay (SYK flash plate assay / Caliper mobility shift)
T2 construct: purchased BPS Bioscience, CA, USA
Procedure, shortened: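 Flashplate format: 2.5 nM SYK, 400 nM biotinylated peptide, 10 μM ATP with 33P-ATP, pH 7.5, 1 h at 30 °C; radioactivity read, staurosporine background. Caliper format: 90 min at 25 °C, mobility-shift read of substrate-to-product conversion; IC50 from dose-response curve.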

Zap70 = molecular target: T3, Zap70 (Homo sapiens, UniProt P43403); assay: ZAP-70 enzymatic assay (Caliper LifeSciences technology)
T3 construct: purchased BPS Bioscience, CA, USA
T3 sequence (P43403 1-619): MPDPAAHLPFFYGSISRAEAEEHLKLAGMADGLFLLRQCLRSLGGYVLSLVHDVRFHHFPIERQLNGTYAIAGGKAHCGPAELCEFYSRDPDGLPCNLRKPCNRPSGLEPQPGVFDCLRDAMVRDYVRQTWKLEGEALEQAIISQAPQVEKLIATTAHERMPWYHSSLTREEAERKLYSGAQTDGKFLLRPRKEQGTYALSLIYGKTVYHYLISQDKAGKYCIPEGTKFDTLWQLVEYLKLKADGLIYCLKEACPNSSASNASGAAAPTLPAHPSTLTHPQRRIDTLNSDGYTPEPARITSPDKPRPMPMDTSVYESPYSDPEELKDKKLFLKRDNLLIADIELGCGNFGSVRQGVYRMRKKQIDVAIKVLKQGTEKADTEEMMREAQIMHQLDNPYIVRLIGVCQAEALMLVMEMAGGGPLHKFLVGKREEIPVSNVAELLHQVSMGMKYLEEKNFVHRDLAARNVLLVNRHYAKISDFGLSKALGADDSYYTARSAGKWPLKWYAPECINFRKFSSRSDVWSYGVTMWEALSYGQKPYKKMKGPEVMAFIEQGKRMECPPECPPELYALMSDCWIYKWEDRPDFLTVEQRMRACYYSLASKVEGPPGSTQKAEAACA
Protocol: as §1, §2, §3, §4

SRC = molecular target: T4, SRC (Homo sapiens, UniProt P12931); assay: Src enzymatic assay (Caliper LifeSciences technology)
T4 construct: purchased Carna Bioscience, Kobe, Japan
Protocol: as §1, §2, §3, §4

KDR = molecular target: T5, KDR (Homo sapiens, UniProt P35968); assay: KDR enzymatic assay (Caliper LifeSciences technology)
T5 construct: purchased BPS Bioscience, CA, USA
Protocol: as §1, §2, §3, §4

T1 sequence (Q06187 whole entry): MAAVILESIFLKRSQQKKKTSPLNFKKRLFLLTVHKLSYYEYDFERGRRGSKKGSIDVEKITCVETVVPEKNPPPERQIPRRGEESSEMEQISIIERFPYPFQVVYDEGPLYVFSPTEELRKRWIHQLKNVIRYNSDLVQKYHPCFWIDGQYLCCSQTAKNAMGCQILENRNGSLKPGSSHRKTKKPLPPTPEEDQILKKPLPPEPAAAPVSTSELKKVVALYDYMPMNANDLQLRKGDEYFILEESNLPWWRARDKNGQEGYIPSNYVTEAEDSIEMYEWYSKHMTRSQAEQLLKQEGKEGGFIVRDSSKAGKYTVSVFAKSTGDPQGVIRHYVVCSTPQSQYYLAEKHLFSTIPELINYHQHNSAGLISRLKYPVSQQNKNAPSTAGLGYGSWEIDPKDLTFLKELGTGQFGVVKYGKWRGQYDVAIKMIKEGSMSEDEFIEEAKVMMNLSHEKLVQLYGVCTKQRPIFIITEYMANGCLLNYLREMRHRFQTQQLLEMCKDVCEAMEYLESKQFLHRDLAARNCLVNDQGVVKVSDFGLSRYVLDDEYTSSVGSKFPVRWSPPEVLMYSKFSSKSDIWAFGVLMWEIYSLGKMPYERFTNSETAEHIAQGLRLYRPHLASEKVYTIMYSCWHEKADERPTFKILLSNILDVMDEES
T4 sequence (P12931 whole entry): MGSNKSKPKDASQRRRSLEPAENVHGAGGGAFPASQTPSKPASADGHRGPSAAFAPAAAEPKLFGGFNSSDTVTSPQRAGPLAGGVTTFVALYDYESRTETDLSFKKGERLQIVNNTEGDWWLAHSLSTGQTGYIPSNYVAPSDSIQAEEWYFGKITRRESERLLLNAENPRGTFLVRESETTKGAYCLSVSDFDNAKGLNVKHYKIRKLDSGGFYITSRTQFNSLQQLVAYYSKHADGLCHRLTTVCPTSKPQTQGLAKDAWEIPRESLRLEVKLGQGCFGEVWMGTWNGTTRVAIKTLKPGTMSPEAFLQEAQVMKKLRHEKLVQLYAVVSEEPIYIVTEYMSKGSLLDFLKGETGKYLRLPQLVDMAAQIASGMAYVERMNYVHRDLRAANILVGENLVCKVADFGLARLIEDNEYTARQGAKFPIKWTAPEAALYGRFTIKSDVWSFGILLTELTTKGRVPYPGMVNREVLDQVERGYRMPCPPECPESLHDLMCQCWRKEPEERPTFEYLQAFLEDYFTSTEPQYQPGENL
T5 sequence (P35968 20-1356): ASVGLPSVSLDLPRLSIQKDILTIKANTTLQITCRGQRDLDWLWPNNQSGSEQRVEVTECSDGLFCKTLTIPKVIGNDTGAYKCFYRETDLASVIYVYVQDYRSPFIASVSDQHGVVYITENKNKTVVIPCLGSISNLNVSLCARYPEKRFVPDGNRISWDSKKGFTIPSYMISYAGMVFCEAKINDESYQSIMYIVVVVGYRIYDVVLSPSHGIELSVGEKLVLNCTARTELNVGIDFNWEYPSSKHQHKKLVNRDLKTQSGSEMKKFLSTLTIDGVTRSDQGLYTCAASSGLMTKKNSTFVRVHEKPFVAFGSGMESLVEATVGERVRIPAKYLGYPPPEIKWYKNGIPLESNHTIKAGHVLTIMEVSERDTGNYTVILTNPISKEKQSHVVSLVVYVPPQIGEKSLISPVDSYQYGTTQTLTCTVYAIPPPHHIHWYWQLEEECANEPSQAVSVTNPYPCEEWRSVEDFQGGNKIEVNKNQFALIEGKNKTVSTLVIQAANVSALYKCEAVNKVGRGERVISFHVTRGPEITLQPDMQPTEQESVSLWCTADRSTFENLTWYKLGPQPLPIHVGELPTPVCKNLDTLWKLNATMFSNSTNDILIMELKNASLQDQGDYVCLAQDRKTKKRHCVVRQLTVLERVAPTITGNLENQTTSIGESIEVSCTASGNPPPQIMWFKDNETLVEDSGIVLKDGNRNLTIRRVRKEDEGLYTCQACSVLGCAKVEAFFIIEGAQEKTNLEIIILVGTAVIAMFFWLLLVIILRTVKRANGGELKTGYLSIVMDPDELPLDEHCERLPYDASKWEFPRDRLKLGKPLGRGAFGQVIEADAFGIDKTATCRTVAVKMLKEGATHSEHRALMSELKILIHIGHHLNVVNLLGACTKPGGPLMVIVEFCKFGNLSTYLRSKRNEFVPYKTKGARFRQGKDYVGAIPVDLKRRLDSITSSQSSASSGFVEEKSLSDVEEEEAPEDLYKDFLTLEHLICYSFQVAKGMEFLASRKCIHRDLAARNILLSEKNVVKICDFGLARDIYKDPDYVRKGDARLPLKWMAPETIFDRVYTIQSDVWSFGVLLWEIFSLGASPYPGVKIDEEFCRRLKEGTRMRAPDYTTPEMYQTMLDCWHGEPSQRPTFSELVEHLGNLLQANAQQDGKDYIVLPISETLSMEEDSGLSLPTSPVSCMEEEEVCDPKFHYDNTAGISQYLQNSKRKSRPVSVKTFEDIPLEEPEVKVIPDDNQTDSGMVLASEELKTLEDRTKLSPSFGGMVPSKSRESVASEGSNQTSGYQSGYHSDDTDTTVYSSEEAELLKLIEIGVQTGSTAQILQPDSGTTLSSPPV

IC50 (BTK) [µM]	IC50 (Syk) [µM]	IC50 (Zap70) [µM]	IC50 (SRC) [µM]	IC50 (KDR) [µM]	Compound
3 to 50					C=CC(=O)Nc1cccc(-c2cc3nccc(Oc4cccc(Cl)c4)c3o2)c1 [Compound D9, N-{3-[7-(3-Chloro-phenoxy)-furo[3,2-b]pyridin-2-yl]-phenyl}-acrylamide]
0.3 to 3	3 to 50				Nc1cccc(-c2cc3nccc(Oc4ccc(Oc5ccccc5)cc4)c3o2)c1 [Compound B79, 3-[7-(4-Phenoxyphenoxy)furo[3,2-b]pyridin-2-yl]aniline]
3 to 50					C=CC(=O)Nc1cccc(-c2cc3nccc(Oc4ccc5ncccc5c4)c3o2)c1 [Compound D10, N-{3-[7-(Quinolin-6-yloxy)-furo[3,2-b]pyridin-2-yl]-phenyl}-acrylamide]
	< 0.3	< 0.3			COc1cc(-c2cc3nccc(-c4cnn(Cc5ccccc5)c4)c3o2)cc(OC)c1OC [Compound C58]
3 to 50					CCC(=O)Nc1cccc(-c2cc3nccc(Oc4ccccc4)c3o2)c1 [Compound D8, N-[3-(7-Phenoxy-furo[3,2-b]pyridin-2-yl)-phenyl]-propionamide]
0.3 to 3					O=C(CCl)NCc1cccc(-c2cc3nccc(-c4ccccc4)c3o2)c1 [Compound D16, 2-Chloro-N-[3-(7-phenyl-furo[3,2-b]pyridin-2-yl)-benzyl]-acetamide]
3 to 50					CCC(=O)Nc1ccc(Oc2ccnc3cc(-c4ccccc4)oc23)cc1 [Compound D24, N-[4-(2-Phenyl-furo[3,2-b]pyridin-7-yloxy)-phenyl]-propionamide]
3 to 50					CCC(=O)Nc1cccc(Oc2ccnc3cc(C)oc23)c1 [Compound D28, N-[3-(2-Methyl-furo[3,2-b]pyridin-7-yloxy)-phenyl]-propionamide]
0.3 to 3	0.3 to 3		0.3 to 3		CNC(=O)c1ccccc1Nc1ccnc2cc(-c3cc(OC)c(OC)c(OC)c3)oc12 [Compound B8, N-Methyl-2-[2-(3,4,5-trimethoxy-phenyl)-furo[3,2-b]pyridin-7-ylamino]-benzamide]
	< 0.3	0.3 to 3			COc1cc(-c2cc3nccc(-c4ccc5c(c4)OCO5)c3o2)cc(OC)c1OC [Compound B76, 7-(Benzo[d][1,3]dioxol-5-yl)-2-(3,4,5-trimethoxyphenyl)furo[3,2-b]pyridine]
0.3 to 3					C=CC(=O)NCc1ccc(-c2ccnc3cc(-c4ccccc4)oc23)cc1 [Compound D25, N-[4-(2-Phenyl-furo[3,2-b]pyridin-7-yl)-benzyl]-acrylamide]
< 0.3					O=C(CCl)Nc1ccc(Oc2ccnc3cc(-c4ccccc4)oc23)cc1 [Compound D23, 2-Chloro-N-[4-(2-phenyl-furo[3,2-b]pyridin-7-yloxy)-phenyl]-acetamide]
3 to 50					CCC(=O)Nc1cccc(Oc2ccnc3cc(-c4ccccc4)oc23)c1 [Compound D21, N-[3-(2-Phenyl-furo[3,2-b]pyridin-7-yloxy)-phenyl]-propionamide]
0.3 to 3					C=CC(=O)Nc1cccc(-c2cc3nccc(Oc4ccc(Cl)cc4)c3o2)c1 [Compound D11, N-{3-[7-(4-Chloro-phenoxy)-furo[3,2-b]pyridin-2-yl]-phenyl}-acrylamide]
3 to 50					CCC(=O)Nc1cccc(-c2cc3nccc(-c4ccccc4)c3o2)c1 [Compound D14, N-[3-(7-Phenyl-furo[3,2-b]pyridin-2-yl)-phenyl]-propionamide]
< 0.3					O=C(CCl)Nc1cccc(Oc2ccnc3cc(-c4ccccc4)oc23)c1 [Compound D20, 2-Chloro-N-[3-(2-phenyl-furo[3,2-b]pyridin-7-yloxy)-phenyl]-acetamide]
0.3 to 3					C=CC(=O)NCc1cccc(-c2cc3nccc(-c4ccccc4)c3o2)c1 [Compound D15, N-[3-(7-Phenyl-furo[3,2-b]pyridin-2-yl)-benzyl]-acrylamide]

IC50 (BTK) [µM]	IC50 (Syk) [µM]	IC50 (Zap70) [µM]	IC50 (SRC) [µM]	IC50 (KDR) [µM]	Compound
3 to 50	< 0.3			0.3 to 3	Cn1cc(-c2ccnc3cc(-c4ccc5nc[nH]c5c4)oc23)cn1 [Compound C123]
0.3 to 3					C=CC(=O)Nc1ccc(Oc2ccnc3cc(-c4ccccc4)oc23)cc1 [Compound D22, N-[4-(2-Phenyl-furo[3,2-b]pyridin-7-yloxy)-phenyl]-acrylamide]
0.3 to 3					C=CC(=O)Nc1cccc(Oc2ccnc3cc(-c4ccccc4)oc23)c1 [Compound D19, N-[3-(2-Phenyl-furo[3,2-b]pyridin-7-yloxy)-phenyl]-acrylamide]
	3 to 50		3 to 50	3 to 50	Cc1noc(C)c1-c1cc2nccc(-c3c(C)noc3C)c2o1 [Compound B41, 2,7-Bis-(3,5-dimethyl-isoxazol-4-yl)-furo[3,2-b]pyridine]
< 0.3					C=CC(=O)NCc1cccc(-c2cc3nccc(Oc4ccc(Oc5ccccc5)cc4)c3o2)c1 [Compound D4, N-{3-[7-(4-Phenoxy-phenoxy)-furo[3,2-b]pyridin-2-yl]-benzyl}-acrylamide]
	0.3 to 3		< 0.3	< 0.3	COc1cccc(-c2cc3nccc(Nc4ccc5[nH]ccc5c4C)c3o2)c1 [Compound B57, [2-(3-Methoxy-phenyl)-furo[3,2-b]pyridin-7-yl]-(4-methyl-1H-indol-5-yl)-amine]
< 0.3					Cc1cc2nccc(Oc3cccc(NC(=O)CCl)c3)c2o1 [Compound D27, 2-Chloro-N-[3-(2-methyl-furo[3,2-b]pyridin-7-yloxy)-phenyl]-acetamide]
3 to 50	0.3 to 3			< 0.3	OCc1ccc(-c2cc3nccc(-c4ccc(CO)cc4)c3o2)cc1 [Compound B44, {4-[2-(4-Hydroxymethyl-phenyl)-furo[3,2-b]pyridin-7-yl]-phenyl}-methanol]
	0.3 to 3	3 to 50			COc1cc(-c2cc3nccc(-c4ccnn4C)c3o2)cc(OC)c1OC [Compound C64]
	< 0.3		0.3 to 3	0.3 to 3	COc1cc(-c2cc3nccc(-c4cnc5c(c4)CCCO5)c3o2)cc(OC)c1OC [Compound C113]
	< 0.3		< 0.3	< 0.3	COc1ccc(-c2cc3nccc(Nc4ccc5[nH]ccc5c4C)c3o2)cc1OC [Compound B53, [2-(3,4-Dimethoxy-phenyl)-furo[3,2-b]pyridin-7-yl]-(4-methyl-1H-indol-5-yl)-amine]
	< 0.3		0.3 to 3	0.3 to 3	COc1ccc(O)cc1-c1ccnc2cc(-c3cc(OC)c(OC)c(OC)c3)oc12 [Compound C136]
3 to 50					CCC(=O)Nc1cccc(-c2ccnc3cc(C)oc23)c1 [Compound D29, N-[3-(2-Methyl-furo[3,2-b]pyridin-7-yl)-phenyl]-propionamide]
	0.3 to 3		< 0.3	0.3 to 3	COc1c(C)cc(-c2cc3nccc(Nc4ccc5[nH]ccc5c4C)c3o2)cc1C [Compound B49, [2-(4-Methoxy-3,5-dimethyl-phenyl)-furo[3,2-b]pyridin-7-yl]-(4-methyl-1H-indol-5-yl)-amine]
	0.3 to 3		< 0.3	0.3 to 3	Cc1c(Nc2ccnc3cc(-c4ccc(N5CCOCC5)cc4)oc23)ccc2[nH]ccc12 [Compound B54]
	3 to 50		0.3 to 3	0.3 to 3	Cc1cccc(-c2cc3nccc(Nc4ccc5[nH]ccc5c4C)c3o2)c1 [Compound B51, (4-Methyl-1H-indol-5-yl)-(2-m-tolyl-furo[3,2-b]pyridin-7-yl)-amine]
	0.3 to 3		< 0.3	0.3 to 3	Cc1c(Nc2ccnc3cc(-c4ccc5c(c4)OCO5)oc23)ccc2[nH]ccc12 [Compound B48]
